Reference: patent publication US6992193B2, “Sulfonylamino phenylacetamide derivatives and methods of their use” (Adolor Corporation, priority 2003, dated 2006)
Counter-ions that a name gives are not always drawn. Like-named read-outs stand apart in the source and are kept apart here.

Key:
[1] = target: T1, cloned human μ opioid receptor (Homo sapiens, UniProt P35372); experiment: [3H]diprenorphine binding to cloned human μ opioid receptor
T1 construct: expressed in transfected cells
Experimental: (§1) IC50 values were obtained by nonlinear analysis of the data using GraphPad Prism version 3.00 for Windows (GraphPad Software, San Diego). Ki values were obtained by Cheng-Prusoff corrections of IC50 values.
(§2) After dilution in buffer A and homogenization as before, membrane proteins (10-80 μg) in 250 μL were added to mixtures containing test compound and [^3H]diprenorphine (0.5 to 1.0 nM, 40,000 to 50,000 dpm) in 250 μL of buffer A in 96-well deep-well polystyrene titer plates (Beckman). After incubation at room temperature for one hour, the samples were filtered through GF/B filters that had been presoaked in a solution of 0.5% (w/v) polyethylenimine and 0.1% (w/v) bovine serum albumin in water. The filters were rinsed 4 times with 1 mL of cold 50 mM Tris HCl, pH 7.8 and radioactivity remaining on the filters determined by scintillation spectroscopy. Nonspecific binding was determined by the minimum values of the titration curves and was confirmed by separate assay wells containing 10 μM naloxone.
(§3) To determine the equilibrium dissociation constant for the inhibitors (Ki), radioligand bound (cpm) in the presence of various concentrations of test compounds was measured. […] The nonlinear regression fit was performed using the program Prism® (GraphPad Software, San Diego, Calif.). The Ki values were then determined from the […] values by the following equation, [formula] • where [ligand] is the concentration of radioligand; and • Kd is the equilibrium dissociation constant for the radioligand.

[2] = target: T2, cloned human δ opioid receptor (Homo sapiens, UniProt P41143); experiment: [3H]diprenorphine binding to cloned human δ opioid receptor
T2 construct: expressed in transfected cells
T2 sequence (P41143 whole entry): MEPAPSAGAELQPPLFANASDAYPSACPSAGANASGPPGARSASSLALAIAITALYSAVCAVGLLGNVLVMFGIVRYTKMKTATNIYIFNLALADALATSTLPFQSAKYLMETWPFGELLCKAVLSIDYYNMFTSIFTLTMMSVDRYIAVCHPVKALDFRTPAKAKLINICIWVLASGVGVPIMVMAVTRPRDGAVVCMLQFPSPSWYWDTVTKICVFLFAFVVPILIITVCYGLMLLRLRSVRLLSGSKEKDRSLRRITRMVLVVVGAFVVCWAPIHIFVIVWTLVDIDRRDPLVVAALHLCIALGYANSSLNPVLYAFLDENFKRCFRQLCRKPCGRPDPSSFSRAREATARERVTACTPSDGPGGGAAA
Experimental: as §1, §2, §3

CYP2D6 = target: T3, CYP2D6 (Homo sapiens, UniProt P10635); experiment: Inhibition of CYP2D6 catalyzed conversion of MAMC to HAMC; type: in vitro ADME
T3 construct: purchased BD Biosciences
T3 sequence (P10635 whole entry): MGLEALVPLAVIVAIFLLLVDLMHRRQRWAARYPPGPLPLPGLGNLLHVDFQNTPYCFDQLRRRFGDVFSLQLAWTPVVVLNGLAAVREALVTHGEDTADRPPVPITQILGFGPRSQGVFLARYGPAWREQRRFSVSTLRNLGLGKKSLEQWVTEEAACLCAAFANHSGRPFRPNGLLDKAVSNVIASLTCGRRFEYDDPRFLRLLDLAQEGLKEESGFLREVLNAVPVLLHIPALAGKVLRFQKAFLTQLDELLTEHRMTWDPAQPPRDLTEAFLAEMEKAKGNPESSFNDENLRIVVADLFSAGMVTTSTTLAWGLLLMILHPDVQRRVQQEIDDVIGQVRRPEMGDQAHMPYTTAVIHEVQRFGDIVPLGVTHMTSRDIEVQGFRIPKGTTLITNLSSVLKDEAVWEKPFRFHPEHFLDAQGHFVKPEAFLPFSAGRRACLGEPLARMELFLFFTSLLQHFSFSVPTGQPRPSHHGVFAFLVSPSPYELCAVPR
Experimental: Inhibition of CYP2D6 Catalyzed Conversion of MAMC to HAMC
Microsomes containing baculovirus expressed human recombinant CYP2D6 and MAMC were purchased from BD Biosciences. The method is a modification of the method provided by BD Biosciences.
• Assay Buffer=50 mM KPO4, 15 μg/mL NADP^+, 0.30 mg/mL glucose-6-phosphate, 0.20 mg/mL MgCl2, 0.96 U/mL glucose-6-phosphate dehydrogenase, 2.5 μM MAMC, pH 7.4. • Dilution Buffer=50 mM KPO4, pH 7.4 • Enzyme Buffer=150 mM KPO4, pH 7.4 • Stop Solution=80% acetonitrile, 20% 0.5 M Tris Base Procedure:
The assays were done in black 96 well plates (VWR Cat# 22221-572) and contained: 40 μL assay buffer, 10 μL test compound in dilution buffer and 50 μL of 10-15 pmol/mL CYP2D6 in enzyme buffer. Final concentrations: (100 mM KPO4, pH 7.4, 7.9 μM NADP^+, 0.36 mM glucose-6-phosphate, 0.4 mM MgCl2, 0.38 U/mL glucose-6-phosphate dehydrogenase, 1 μM MAMC (BD Biosciences), 0.5 pmol CYP2D6 (BD Biosciences))
For large experiments, assay buffer and test compound were added using the MiniTrak IV (Packard Biosciences), otherwise they were added using 25-250 μL and 5-100 μL 8 channel electronic pipettors (BioHit). CYP2D6 was added using 25-250 μL 8 channel electronic pipettor.
Titrations are done in either 96 well deep-well plates (Beckman) or 96 well microtiter plates (Costar), an initial dilution in dilution buffer is prepared from stock solutions in DMSO to start either 8 (1:6) or 12 (1:3.15) serial dilutions. For 1:6 dilutions, 50 μL for each dilution is transferred to 250 μL dilution buffer. For 1:3.15 dilutions, 50 μL for each dilution is transferred to 108 μL dilution buffer. Further details on concentrations will be provided in each experiment. Titrations are done using either 25-250 μL 8 channel electronic pipettor, 30-300 μL 12 channel manual pipettor (Spectrum), or the Multiprobe II. For screening, dilution plates are prepared in dilution buffer in 96 well microtiter plates from masterplates in 100% DMSO using the Multiprobe II or MiniTrak IV. After assay buffer and test compound has been added, the plates and the enzyme buffer are prewarmed at 37° C. for 15 minutes. After prewarming, CYP2D6 is added to then enzyme buffer and then added to the assay plate using 25-250 μL 8 channel electronic pipettor and the plates are incubated for 15 minutes at 37° C. After incubation, 50 μL stop solution is added using 25-250 μL 8 channel electronic pipettor. The plates are then counted on the Fusion (Packard Biosciences) for 4 sec/well using and excitation filter of 390 nm and an emission filter of 460 nm, intensity setting of 1, high detector sensitivity.
Non-specific relative fluorescent units (RFU) are determined in the presence of 10 μM quinidine in wells A1, B1, and C1 of each plate and total RFU determined in wells D1, E1, F1 in the absence of test compound. Specific HAMC production is the difference between total and nonspecific. For each compound, a percent inhibition of HAMC production is calculated by: % I=(1−(A/B))*100 • where A=cpm specifically bound for test compound • B=cpm specifically bound in the absence of test compound For experiments where the plates are registered in the biological database, % I is determined automatically by the biological database. Titrations
IC50's are calculated using nonlinear regression to a one-site model using GraphPad Prism or a VB algorithm fitting the data to that equation.

CYP3A4 = CYP3A4 (Homo sapiens, UniProt P08684); experiment: Inhibition of CYP3A4 conversion of dibenzylfluorescein to fluorescein; type: in vitro ADME
CYP3A4, sequence (P08684 whole entry): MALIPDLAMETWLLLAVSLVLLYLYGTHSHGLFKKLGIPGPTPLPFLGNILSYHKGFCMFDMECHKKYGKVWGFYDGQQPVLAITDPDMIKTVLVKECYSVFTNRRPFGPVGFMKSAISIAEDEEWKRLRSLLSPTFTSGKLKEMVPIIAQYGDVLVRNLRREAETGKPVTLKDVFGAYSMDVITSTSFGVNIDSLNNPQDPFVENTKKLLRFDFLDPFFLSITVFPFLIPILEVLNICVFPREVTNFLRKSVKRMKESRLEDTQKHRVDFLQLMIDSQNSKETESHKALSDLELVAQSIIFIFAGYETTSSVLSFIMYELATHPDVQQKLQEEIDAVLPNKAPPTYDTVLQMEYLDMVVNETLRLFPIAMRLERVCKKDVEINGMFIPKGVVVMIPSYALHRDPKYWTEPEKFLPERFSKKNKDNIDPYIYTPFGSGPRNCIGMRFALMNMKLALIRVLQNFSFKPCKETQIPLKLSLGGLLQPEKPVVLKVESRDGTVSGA
Experimental: (§4) Inhibition of CYP2C9 and CYP3A4
(§5) These assays were carried out as described using CYP2C9 and CYP3A4 conversion of dibenzylfluorescein (DBF) to fluorescein (F).

CYP2C9 = CYP2C9 (Homo sapiens, UniProt P11712); experiment: Inhibition of CYP2C9 conversion of dibenzylfluorescein to fluorescein; type: in vitro ADME
CYP2C9, sequence (P11712 whole entry): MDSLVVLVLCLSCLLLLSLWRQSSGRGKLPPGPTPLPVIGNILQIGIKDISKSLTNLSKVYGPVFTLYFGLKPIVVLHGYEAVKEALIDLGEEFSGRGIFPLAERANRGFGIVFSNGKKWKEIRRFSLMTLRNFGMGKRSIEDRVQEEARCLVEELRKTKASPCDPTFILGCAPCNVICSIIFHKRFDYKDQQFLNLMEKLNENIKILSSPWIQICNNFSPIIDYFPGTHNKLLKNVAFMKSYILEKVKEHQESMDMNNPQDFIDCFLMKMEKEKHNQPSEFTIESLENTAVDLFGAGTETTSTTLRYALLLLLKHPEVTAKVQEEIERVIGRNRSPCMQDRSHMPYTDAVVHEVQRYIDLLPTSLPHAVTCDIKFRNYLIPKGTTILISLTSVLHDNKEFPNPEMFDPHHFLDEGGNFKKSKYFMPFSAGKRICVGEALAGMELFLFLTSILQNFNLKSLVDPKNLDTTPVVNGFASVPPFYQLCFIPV
Experimental: as §4, §5

[3] = system: cytochrome P450 enzymes (CYP2D6, CYP3A4, CYP2C9); experiment: Overall evaluation of inhibition of major drug metabolizing hepatic cytochrome P450 enzymes; type: in vitro ADME, human
[4] = inhibition of [3H]diprenorphine binding, cloned human μ receptor, read-out: Ki(μ)
[5] = inhibition of [3H]diprenorphine binding, cloned human δ receptor, read-out: Ki(δ)
[6] = MAMC to HAMC conversion, read-out: IC50(CYP2D6)
[7] = DBF to fluorescein conversion, read-out: IC50(CYP3A4)
[8] = DBF to fluorescein conversion, read-out: IC50(CYP2C9)

T1 sequence (P35372 whole entry): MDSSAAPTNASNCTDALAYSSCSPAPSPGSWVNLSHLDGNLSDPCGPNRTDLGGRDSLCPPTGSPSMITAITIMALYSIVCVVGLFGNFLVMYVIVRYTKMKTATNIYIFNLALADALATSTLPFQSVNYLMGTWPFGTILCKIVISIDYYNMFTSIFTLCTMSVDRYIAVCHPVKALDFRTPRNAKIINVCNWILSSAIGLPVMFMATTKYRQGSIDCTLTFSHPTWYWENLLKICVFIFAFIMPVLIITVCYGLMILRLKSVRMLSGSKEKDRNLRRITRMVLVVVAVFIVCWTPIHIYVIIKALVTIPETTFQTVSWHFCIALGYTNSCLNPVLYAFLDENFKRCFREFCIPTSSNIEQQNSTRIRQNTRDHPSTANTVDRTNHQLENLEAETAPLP

Compound	Ki [1, 4] [nM]	Ki [2, 5] [nM]	IC50 (CYP2D6; [6]) [nM]	IC50 (CYP3A4; [7]) [nM]	Ki [1] [nM]	Ki [2] [nM]	IC50 (CYP2D6) [nM]	IC50 (CYP2C9) [nM]	IC50 (CYP3A4) [nM]	IC50 (CYP2C9; [8]) [nM]	activity toward the cytochrome P450 (summary in words) [3]
CN(C(=O)Cc1cccc(CNS(C)(=O)=O)c1)[C@H](CN1CCCC1)c1ccccc1 [Example 11, 2-[3-(methanesulfonylamino-methyl)-phenyl]-N-methyl-N-[1-(S)-phenyl-2-pyrrolidin-1-yl-ethyl]-acetamide hydrochloride]	1900	1500	1400	> 10000							
CN(C(=O)Cc1ccc(CNS(C)(=O)=O)cc1)[C@H](CN1CCCC1)c1ccccc1 [Example 12, 2-[4-(methanesulfonylamino-methyl)-phenyl]-N-methyl-N-[1-(S)-phenyl-2-pyrrolidin-1-yl-ethyl]-acetamide]					470	> 3000	12000	> 10000	> 10000		
CN(C(=O)Cc1ccc(CNS(C)(=O)=O)cc1)[C@H](CN1CC[C@H](O)C1)c1ccccc1 [Example 13, N-{2-[3-(S)-hydroxy-pyrrolidin-1-yl]-1-(S)-phenyl-ethyl}-2-[4-(methanesulfonylamino-methyl)-phenyl]-N-methyl-acetamide hydrochloride]			9300	> 10000	140	190				> 10000	
CCS(=O)(=O)NCc1ccc(CC(=O)N(C)[C@H](CN2CC[C@H](O)C2)c2ccccc2)cc1.Cl [Example 14, 2-[4-(ethanesulfonylamino-methyl)-phenyl]-N-{2-[3-(S)-hydroxy-pyrrolidin-1-yl]-1-(S)-phenyl-ethyl}-N-methyl-acetamide hydrochloride]		510	> 10000	> 10000	1000					> 10000	metabolically stable in regard to their activity toward the cytochrome P450
CC(C)S(=O)(=O)NCc1ccc(CC(=O)N(C)[C@H](CN2CC[C@H](O)C2)c2ccccc2)cc1.Cl [Example 15, N-{2-[3-(S)-hydroxy-pyrrolidin-1-yl]-1-(S)-phenyl-ethyl}-N-methyl-2-{4-[(propane-2-sulfonylamino)-methyl]-phenyl}-acetamide hydrochloride]	1100	470	> 10000	> 10000						> 10000	metabolically stable in regard to their activity toward the cytochrome P450
CCCS(=O)(=O)NCc1ccc(CC(=O)N(C)[C@H](CN2CC[C@H](O)C2)c2ccccc2)cc1.Cl [Example 16, N-{2-[3-(S)-hydroxy-pyrrolidin-1-yl]-1-(S)-phenyl-ethyl}-N-methyl-2-{4-[(propane-1-sulfonylamino)-methyl]-phenyl}-acetamide hydrochloride]			> 10000	> 10000	730	100				> 10000	metabolically stable in regard to their activity toward the cytochrome P450
CCCCS(=O)(=O)NCc1ccc(CC(=O)N(C)[C@H](CN2CC[C@H](O)C2)c2ccccc2)cc1 [Example 17, 2-{4-[(butane-1-sulfonylamino)-methyl]-phenyl}-N-{2-[3-(S)-hydroxy-pyrrolidin-1-yl]-1-(S)-phenyl-ethyl}-N-methyl-acetamide hydrochloride]			7200	7000	1000	170				> 10000	
CN(C(=O)Cc1ccc(CNS(=O)(=O)c2ccccc2)cc1)[C@H](CN1CC[C@H](O)C1)c1ccccc1 [Example 18, 2-[4-(benzenesulfonylamino-methyl)-phenyl]-N-{2-[3-(S)-hydroxy-pyrrolidin-1-yl]-1-(S)-phenyl-ethyl}-N-methyl-acetamide hydrochloride]	880	83	3400	4300						8000	
CN(C(=O)Cc1ccc(CNS(=O)(=O)c2ccc(F)cc2)cc1)[C@H](CN1CC[C@H](O)C1)c1ccccc1 [Example 19, 2-{4-[(4-fluoro-benzenesulfonylamino)-methyl]-phenyl}-N-{2-[3-(S)-hydroxy-pyrrolidin-1-yl]-1-(S)-phenyl-ethyl}-N-methyl-acetamide hydrochloride]			6300	2900	1100	64				> 10000	
Cc1ccc(S(=O)(=O)NCc2ccc(CC(=O)N(C)[C@H](CN3CC[C@H](O)C3)c3ccccc3)cc2)cc1 [Example 20, N-{2-[3-(S)-hydroxy-pyrrolidin-1-yl]-1-(S)-phenyl-ethyl}-N-methyl-2-{4-[(toluene-4-sulfonylamino)-methyl]-phenyl}-acetamide hydrochloride]	700		4900	> 10000		28				> 10000	
CN(C(=O)Cc1ccc(CNS(=O)(=O)Cc2ccccc2)cc1)[C@H](CN1CC[C@H](O)C1)c1ccccc1 [Example 21, N-{2-[3-(S)-hydroxy-pyrrolidin-1-yl]-1-(S)-phenyl-ethyl}-N-methyl-2-[4-(phenylmethanesulfonylamino-methyl)-phenyl]-acetamide hydrochloride]	480		5300	5600		170				> 10000	
CN(C(=O)Cc1ccc(NS(C)(=O)=O)cc1)[C@H](CN1CC[C@H](O)C1)c1ccccc1 [Example 25, N-{2-[3-(S)-hydroxy-pyrrolidin-1-yl]-1-(S)-phenyl-ethyl}-2-(4-methanesulfonylamino-phenyl)-N-methyl-acetamide hydrochloride]			4900	> 10000	100	180					
